The source of these data is US9896441B2 (Lycera Corporation, priority 2014, dated 2018).

The EC50 is the midpoint of the concentration-response curve. Low values mean greater potency, high ones weaker potency.

Each structure is given as a SMILES string. Bounds are passed on as bounds.

Test [1] addresses T1, Gal4-RORγ-LBD (Homo sapiens, UniProt P51449).
T1 construct: expressed in transfected cells
T1 sequence (P51449 269-508 limits assumed): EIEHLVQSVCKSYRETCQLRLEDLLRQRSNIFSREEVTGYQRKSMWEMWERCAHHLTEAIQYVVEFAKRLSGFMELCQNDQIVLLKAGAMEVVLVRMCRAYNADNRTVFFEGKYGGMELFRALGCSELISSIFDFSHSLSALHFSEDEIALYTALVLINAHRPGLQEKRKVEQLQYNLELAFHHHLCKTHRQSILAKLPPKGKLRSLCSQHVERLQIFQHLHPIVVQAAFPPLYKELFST
The test is described as follows: Gal4-RORγ Luciferase Reporter Assay in HEK-293T Cells. Type of test: cell-based. The note with it: HEK-293 cells, luciferase reporter, with ursolic acid. The essentials: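 HEK-293 cells were co-transfected with Gal4-RORγ-LBD and a Gal4-luciferase reporter, then exposed overnight at 37 °C to compounds with […] ursolic acid present (0.2% DMSO). Luminescence was read with One-Glo after 10 min at RT, untreated signal was set as 100, and Max Response was taken as the upper plateau of a 4-parameter logistic fit.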

Test [2] has as its target T2, RORγ-LBD (Homo sapiens, UniProt P51449).
T2 construct: made in house; host or cells: SF9 cells (baculovirus); used as diluted lysate
T2 sequence (P51449 269-508 limits assumed): T1 sequence (P51449 269-508 limits assumed)
The test is described as follows: RORγ-Ligand Binding Domain (LBD) TR-FRET Assay. Type of test: biochemical. The note with it: RORγ-LBD TR-FRET. The essentials: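 SF9 lysate containing His-RORγ-LBD, ~3 nM final; coactivator peptide biotin-SRC1 LXXLL, 200 nM final; ursolic acid 2 μM final; DMSO 1% final; Tris pH 7.0 buffer with KCl, EDTA, DTT, BSA. TR-FRET format.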
(TR-FRET usually uses a lanthanide donor and a delayed reading to cut background.)

Regarding `C/C(=C\c1ccc2c(c1)N(S(=O)(=O)c1cccc(C(F)(F)F)c1)C[C@H](CCC(=O)O)O2)c1c(C)noc1C` [Example 86AC, (S,E)-3-(6-(2-(3,5-dimethylisoxazol-4-yl)prop-1-en-1-yl)-4-((3-(trifluoromethyl)phenyl)sulfonyl)-3,4-dihydro-2H-benzo[b][1,4]oxazin-2-yl)propanoic acid], the EC50 in test [1] is greater than 10000 nM; in test [2], less than 500 nM.
The matching figures for `COC(=O)CC[C@H]1CN(S(=O)(=O)c2cccc(C(F)(F)F)c2)c2cc(/C=C(\C)c3c(C)noc3C)ccc2O1` [Example 86AD, (S,E)-methyl 3-(6-(2-(3,5-dimethylisoxazol-4-yl)prop-1-en-1-yl)-4-((3-(trifluoromethyl)-phenyl)sulfonyl)-3,4-dihydro-2H-benzo[b][1,4]oxazin-2-yl)-propanoate]: 500 to 5000 nM and less than 500 nM.
`COC(=O)CC[C@H]1CN(S(=O)(=O)c2cccc(C(F)(F)F)c2)c2cc(/C=C(\C)c3c(Cl)cccc3Cl)ccc2O1` [Example 86AF, (S,E)-methyl 3-(6-(2-(2,6-dichlorophenyl)prop-1-en-1-yl)-4-((3-(trifluoromethyl)phenyl)-sulfonyl)-3,4-dihydro-2H-benzo[b][1,4]oxazin-2-yl)propanoate]: the concentration for a half-maximal effect (EC50) in test [1] was 500 to 5000 nM; in test [2], less than 500 nM.
For `C/C(=C\c1ccc2c(c1)N(S(=O)(=O)c1cccc(C(F)(F)F)c1)C[C@H](CCC(=O)O)O2)c1ccccc1C(F)(F)F` [Example 86AG, (S,E)-3-(6-(2-(2-(trifluoromethyl)-phenyl)prop-1-en-1-yl)-4-((3-(trifluoromethyl)phenyl)sulfonyl)-3,4-dihydro-2H-benzo[b][1,4]-oxazin-2-yl)propanoic acid], the concentration giving a half-maximal response (EC50) in test [1] and in test [2] was less than 500 nM throughout.
As to `COC(=O)CC[C@H]1CN(S(=O)(=O)c2cccc(C(F)(F)F)c2)c2cc(/C=C(\C)c3ccccc3C(F)(F)F)ccc2O1` [Example 86AH, (S,E)-methyl 3-(6-(2-(2-(trifluoromethyl)phenyl)prop-1-en-1-yl)-4-((3-(trifluoromethyl)phenyl)-sulfonyl)-3,4-dihydro-2H-benzo[b][1,4]oxazin-2-yl)propanoate], the figures for the concentration for a half-maximal effect (EC50) in test [1] and in test [2] were 500 to 5000 nM and less than 500 nM, respectively.
The matching figures for `COC(=O)CC[C@H]1CN(S(=O)(=O)c2cccc(C(F)(F)F)c2)c2cc(/C=C(\C)c3ccccc3C)ccc2O1` [Example 86AL, (S,E)-methyl 3-(6-(2-(o-tolyl)prop-1-en-1-yl)-4-((3-(trifluoromethyl)-phenyl)sulfonyl)-3,4-dihydro-2H-benzo[b][1,4]oxazin-2-yl)propanoate]: 500 to 5000 nM and less than 500 nM.
Take `C/C(=C\c1ccc2c(c1)N(S(=O)(=O)c1cccc(C(F)(F)F)c1C)C[C@H](CCC(=O)O)O2)c1c(F)cccc1Cl` [Example 86AM, (S,E)-3-(6-(2-(2-chloro-6-fluorophenyl)prop-1-en-1-yl)-4-((2-methyl-3-(trifluoromethyl)-phenyl)sulfonyl)-3,4-dihydro-2H-benzo[i,4]oxazin-2-yl)propanoic acid]: the EC50 in test [1] was 500 to 5000 nM; in test [2], less than 500 nM.
With `COC(=O)CC[C@H]1CN(S(=O)(=O)c2cccc(C(F)(F)F)c2C)c2cc(/C=C(\C)c3c(F)cccc3Cl)ccc2O1` [Example 86AN, (S,E)-methyl 3-(6-(2-(2-chloro-6-fluorophenyl)prop-1-en-1-yl)-4-((2-methyl-3-(trifluoromethyl)-phenyl)sulfonyl)-3,4-dihydro-2H-benzo[b][1,4]oxazin-2-yl)propanoate], the half-maximal effective concentration (EC50) is 500 to 5000 nM in test [1] and less than 500 nM in test [2].
The matching figures for `C/C(=C\c1ccc2c(c1)N(S(=O)(=O)c1ccc(C)c(C(F)(F)F)c1)C[C@H](CCC(=O)O)O2)c1c(F)cccc1Cl` [Example 86AO, (S,E)-3-(6-(2-(2-chloro-6-fluorophenyl)prop-1-en-1-yl)-4-((4-methyl-3-(trifluoromethyl)-phenyl)sulfonyl)-3,4-dihydro-2H-benzo[b][1,4]oxazin-2-yl)propanoic acid]: less than 500 nM and less than 500 nM.
For the molecule `COC(=O)CC[C@H]1CN(S(=O)(=O)c2cc(F)cc(C(F)(F)F)c2)c2cc(/C=C(\C)c3c(F)cccc3Cl)ccc2O1` [Example 86AR, (S,E)-methyl 3-(6-(2-(2-chloro-6-fluorophenyl)prop-1-en-1-yl)-4-((3-fluoro-5-(trifluoromethyl)-phenyl)sulfonyl)-3,4-dihydro-2H-benzo[b][1,4]oxazin-2-yl)propanoate], the EC50 is 500 to 5000 nM in test [1] and less than 500 nM in test [2].
As to `C/C(=C\c1ccc2c(c1)N(S(=O)(=O)c1ccc(F)c(OC(F)F)c1)C[C@H](CCC(=O)O)O2)c1c(F)cccc1Cl` [Example 86AS, (S,E)-3-(6-(2-(2-chloro-6-fluorophenyl)prop-1-en-1-yl)-4-((3-(difluoromethoxy)-4-fluorophenyl)sulfonyl)-3,4-dihydro-2H-benzo[b][1,4]oxazin-2-yl)propanoic acid], the EC50 in test [1] and in test [2] was less than 500 nM throughout.
As to `COC(=O)CC[C@H]1CN(S(=O)(=O)c2ccc(F)c(OC(F)F)c2)c2cc(/C=C(\C)c3c(F)cccc3Cl)ccc2O1` [Example 86AT, (S,E)-methyl 3-(6-(2-(2-chloro-6-fluorophenyl)prop-1-en-1-yl)-4-((3-(difluoromethoxy)-4-fluorophenyl)sulfonyl)-3,4-dihydro-2H-benzo[b][1,4]oxazin-2-yl)propanoate], the EC50 in test [1] and in test [2] was less than 500 nM each time.
With `CCOc1nn(CC)cc1S(=O)(=O)N1C[C@H](CCC(=O)O)Oc2ccc(/C=C(\C)c3c(Cl)cccc3C(F)(F)F)cc21` [Example 86AW, (S,E)-3-(6-(2-(2-chloro-6-(trifluoromethyl)phenyl)prop-1-en-1-yl)-4-((3-ethoxy-1-ethyl-1H-pyrazol-4-yl)sulfonyl)-3,4-dihydro-2H-benzo[b][1,4]oxazin-2-yl)propanoic acid], the EC50 in test [1] and in test [2] was less than 500 nM in each case.
Take `CCOc1nn(CC)cc1S(=O)(=O)N1C[C@H](CCC(=O)OC)Oc2ccc(/C=C(\C)c3c(Cl)cccc3C(F)(F)F)cc21` [Example 86AX, methyl (S,E)-3-(6-(2-(2-chloro-6-(trifluoromethyl)phenyl)prop-1-en-1-yl)-4-((3-ethoxy-1-ethyl-1H-pyrazol-4-yl)sulfonyl)-3,4-dihydro-2H-benzo[b][1,4]oxazin-2-yl)propanoate]: the results for the EC50 in test [1] and in test [2] were 500 to 5000 nM and less than 500 nM, respectively.
With `C/C(=C\c1ccc2c(c1)N(S(=O)(=O)c1cn(C(C)C)nc1OCCO)C[C@H](CCC(=O)O)O2)c1c(F)cccc1Cl` [Example 86AY, (S,E)-3-(6-(2-(2-chloro-6-fluorophenyl)prop-1-en-1-yl)-4-((3-(2-hydroxyethoxy)-1-isopropyl-1H-pyrazol-4-yl)sulfonyl)-3,4-dihydro-2H-benzo[b][1,4]oxazin-2-yl)propanoic acid], the EC50 in test [1] and in test [2] was less than 500 nM each time.
For `C/C(=C\c1ccc2c(c1)N(S(=O)(=O)c1cn(CC(F)F)nc1OCCO)C[C@H](CCC(=O)O)O2)c1c(F)cccc1Cl` [Example 86AZ, (S)-3-(6-(2-(2-chloro-6-fluorophenyl)prop-1-en-1-yl)-4-((1-(2,2-difluoroethyl)-3-(2-hydroxyethoxy)-1H-pyrazol-4-yl)sulfonyl)-3,4-dihydro-2H-benzo[b][1,4]oxazin-2-yl)propanoic acid], the figures for the 50% effective concentration (EC50) in test [1] and in test [2] were 500 to 5000 nM and less than 500 nM, respectively.
The matching figures for `COC(=O)CC[C@H]1CN(S(=O)(=O)c2ccc(F)c(C(F)(F)F)c2)c2cc(/C=C(\C)c3c(F)cccc3Cl)ccc2O1` [Example 86B, (S,E)-methyl 3-(6-(2-(2-chloro-6-fluorophenyl)prop-1-en-1-yl)-4-((4-fluoro-3-(trifluoromethyl)-phenyl)sulfonyl)-3,4-dihydro-2H-benzo[b][1,4]oxazin-2-yl)propanoate]: less than 500 nM and less than 500 nM.
Regarding `C/C(=C\c1ccc2c(c1)N(S(=O)(=O)c1ccc(F)c(C3CC3)c1)C[C@H](CCC(=O)O)O2)c1c(F)cccc1Cl` [Example 86C, (S,E)-3-(6-(2-(2-chloro-6-fluorophenyl)prop-1-en-1-yl)-4-((3-cyclopropyl-4-fluorophenyl)-sulfonyl)-3,4-dihydro-2H-benzo[b][1,4]oxazin-2-yl)-propanoic acid], the concentration giving a half-maximal response (EC50) in test [1] and in test [2] was less than 500 nM throughout.
`COC(=O)CC[C@H]1CN(S(=O)(=O)c2ccc(F)c(C3CC3)c2)c2cc(/C=C(\C)c3c(F)cccc3Cl)ccc2O1` [Example 86D, (S,E)-methyl 3-(6-(2-(2-chloro-6-fluorophenyl)prop-1-en-1-yl)-4-((3-cyclopropyl-4-fluorophenyl)-sulfonyl)-3,4-dihydro-2H-benzo[b][1,4]oxazin-2-yl)propanoate]: the EC50 in test [1] and in test [2] was less than 500 nM in each case.
Turning to `C/C(=C\c1ccc2c(c1)N(S(=O)(=O)c1ccc(F)c(Cl)c1)C[C@H](CCC(=O)O)O2)c1c(F)cccc1Cl` [Example 86E, (S,E)-3-(4-((3-chloro-4-fluorophenyl)sulfonyl)-6-(2-(2-chloro-6-fluorophenyl)prop-1-en-1-yl)-3,4-dihydro-2H-benzo[b][1,4]oxazin-2-yl)propanoic acid], the EC50 in test [1] was 500 to 5000 nM; in test [2], less than 500 nM.
